Data on 89 compounds can be found in a melting point compilation (Tetko et al.; mined from patent text by program, amines drawn as free bases though some values may be those of a salt).

The structures appear in SMILES notation.

The melting point is the temperature, or range, at which the solid turns liquid.

`CCOC(=O)C1=C(C)NC(C=O)=C(C(=O)OCC)C1c1ccccc1OC` (centres undefined) gave a melting point of 111 to 112 °C.

Turning to `CCOC(=O)C1=C(C)N(C)C(C)=C(C(=O)OCC)C1c1ccccc1/C=C/C(=O)OC(C)(C)C`, the melting point was in the range of 149 to 151 °C. `Cc1ccc(NC(Nc2ccc(C)cc2)Nc2ccc(C)cc2)cc1` yielded a melting point of 130 to 131 °C. In the case of `CS(=O)(=O)Nc1ccc(CC#N)c2cn[nH]c12`, the melting point was 223 to 225 °C. For `COC1(c2cc(F)cc(OCc3ccc4c(c3)CCC(=S)N4C)c2)CCOCC1` the value was 136 to 138 °C; for `CCOC(=O)c1cc2cc(-c3ccccc3OC)ccc2nn1`, 143 to 145 °C; for `Nc1ncccc1-c1nc2ccc(-c3ccncc3)nc2n1-c1ccc(CNC(=O)c2ccccc2)cc1`, 231 to 233 °C. In turn, `COCCOc1c(S(C)(=O)=O)ccc(C(=O)O)c1Cl` returned a melting point of 89 to 92 °C.

`CC(N)C(=O)NC(CCC(=O)NC(CC=CCC(=O)O)C(=O)O)C(=O)O` (centres undefined) showed a melting point of 70 °C. `Cc1cc(C2=NOC(c3cc(Cl)cc(Cl)c3)(C(F)(F)F)C2)ccc1C(=O)O` (centres undefined) showed a melting point of 146 to 148 °C. Take `CCCc1c(OCCCCCCc2cc(OC)c(OC)c(C(C)C)c2)ccc(C(=O)O)c1O`: the melting point was in the range of 106 to 108 °C.

Regarding `CCN(CC)c1ccc(-c2cc(-c3ccc(C(=O)O)cc3)ccc2OCCCCO)cc1C(C)(C)C`, the melting point stood at 165 °C. Next, `CN1CCN(C(=S)Nc2ccc3nc(C(C)(C)C)sc3c2)CC1`: 176 to 177 °C; `CCOC(=O)c1c(S)nc(-c2ccccc2)c([N+](=O)[O-])c1C(=O)OCC`: 129 to 132 °C. The compound `COc1cc(C=CC(C)=O)ccc1OCC1CO1` (centres undefined) showed a melting point of 123 to 124 °C.

As to `CCc1cc(C(=O)CBr)ccc1O`, the melting point was greater than 260 °C.

Consider `COc1ccc(S(=O)(=O)n2ccc3ccnc(-c4ccc([N+](=O)[O-])cc4)c32)cc1`, for which the melting point is 178 to 179 °C. As for `O=C(O)Cc1c(Cl)nc(-c2ccccc2)n1Cc1cc([N+](=O)[O-])ccc1Cl`, the melting point fell in the range of 200 to 205 °C. Turning to `Cc1ccc(NC(=O)C(F)(F)F)cc1C(F)(F)F`, the melting point lay in the range of 72 to 74 °C. `CCCCc1nc2c(N)nc3ccccc3c2n1OC(C)C`: the melting point was in the range of 118 to 119 °C. For `COc1cnc(C(=O)Cc2c(Cl)cncc2Cl)cc1OC1CCCC1` the value was 132 °C; for `NC(=O)c1cc(OCCNCC(O)COc2ccc(CCOCC3CC3)cc2)ccc1O` (centres undefined), 149 to 150 °C. For the compound `O=C(O)COc1cccc2c1CCc1sc(SCc3ccc(-c4ccccc4)cc3)nc1-2`, the melting point lay within 198 to 200 °C.

For `Cc1cc(-c2cnn3c(C(F)(F)F)cc(-c4ccc(Cl)c(C)c4)nc23)cc(C)n1`, the melting point came to 254 °C. `CS(=O)(=O)c1ccc(-c2oc3ccc(F)cc3c(=O)c2-c2cccnc2)cc1` gave a melting point of 177 to 178 °C. Turning to `Cc1nc2c(c3c1[nH]c1ccccc13)C(=O)CC(c1ccccc1)C2` (centres undefined), the melting point fell in the range of 246 to 248 °C. For `C=C(C)COCC(C)C1CC=C2C3=C(CCC21C)C1(C)CCC(O)C(C)(C)C1CC3` (centres undefined), the melting point lay within 113 to 115 °C. For `COc1cc(CCCC2SC(=O)NC2=O)ccc1OCc1csc(-c2ccccc2)n1` (centres undefined) the value was 123 to 124 °C. With `CCOC(=O)COc1cc(C)nc2c(OCc3c(Cl)ccc(N(C)C(=O)CNC(=O)C=Cc4ccc(C(=O)NC)cc4)c3Cl)cccc12`, the melting point lay within 134 to 147 °C. Compound `CCOC(=O)c1cnn2c1c(=S)[nH]c1ccccc12` came in with a melting point of 270 to 272 °C. Compound `COC1(C=CCOc2ccc3c(-c4ccc(F)cc4)c4c(cc3c2)C(=O)OC4)CCOCC1` had a melting point of 144 to 148 °C. Turning to `Cc1nn(-c2ccc(Cl)c3c2CC(C)O3)c(=O)n1C(F)F` (centres undefined), the melting point was 78 to 79 °C. Compound `Nc1ccc(CCO)c(N)c1` yielded a melting point of 67 to 72 °C. Turning to `O=c1[nH]c2cc(F)ccc2c(=O)n1-c1ccccc1`, the melting point is 304 to 306 °C. `CCOC(=O)c1ccc(-c2ccc(OCCO)c(-c3ccc(N(CC)CC)c(C(C)(C)C)c3)c2)cc1` registered a melting point of 127 °C. Take `CC(C)n1nc(-c2sc(C(=O)NC3CC3)nc2-c2cccc(Cl)c2)ccc1=O`: the melting point fell in the range of 118 to 120 °C. On to `CC(C)(C)c1cc(Nc2cccc(Cl)c2)cc(C(C)(C)C)c1O`, for which the melting point lay within 110 to 111 °C. Next, `O=C(O)CCCCOc1ccc(OCc2ccccc2)cc1`: 127 to 128 °C.

For `O=C(O)c1cn2c3c(cc(F)cc3c1=O)C1CCCCC12` (centres undefined), the melting point was 281 to 282 °C. For `O=[N+]([O-])c1cccc(CBr)c1CBr` the value was 68 to 70 °C. As for `COC(=O)c1[nH]c(-c2ccccc2)c(-c2ccccc2)c1C(=O)OC`, the melting point lay in the range of 185 to 187 °C. In the case of `C=C(C)COc1ccc2c(C)cc(=O)oc2c1C(=O)C=Cc1cccc(OC)c1`, the melting point was 85 to 87 °C. Consider `Cc1ccc(CSCCCCCOc2ccc(C3=C(c4ccccc4)CCCc4cc(O)ccc43)cc2)cc1`, for which the melting point lay within 165 to 169 °C. The compound `C=Cc1cc(CNC(=O)Nc2ccc(C(C)(C)C)cc2)cc(F)c1NS(C)(=O)=O` registered a melting point of 167 to 170 °C. Next, `CC(C)(C)OC(=O)Nc1ccc(-c2ccc(OCc3ccccc3)nc2)cc1N`: 176 to 177 °C.

`COC(=O)c1cccc(C(=O)NC(Nc2c(Nc3cccnc3)c(=O)c2=O)C(C)(C)C)c1` (centres undefined) gave a melting point of 228 to 229 °C. For `O=C(CC(O)(c1cc(Cl)cc(Cl)c1)C(F)(F)F)c1ccc(-n2cncn2)nc1` (centres undefined) the value was 135 to 136 °C. As for `COc1ccc(CCCC(=O)Nc2c(C)c(C)c3c(c2C)C(c2ccc(C)cc2)C(C)(C)O3)cc1` (centres undefined), the melting point lay in the range of 166 to 167 °C.

The compound `CSCCC(=N)NS(N)(=O)=O` returned a melting point of 88 to 91 °C. The compound `CNC(=O)N1CCc2[nH]cnc2C1c1ccco1` (centres undefined) showed a melting point of 205 °C. As for `O=C(O)c1cc(Oc2ccc(Cl)cc2)c(Cl)cc1[N+](=O)[O-]`, the melting point fell in the range of 160 to 162 °C. Consider `CCOc1ccc(S(=O)(=O)N2CCN(C)CC2)cc1C#N`, for which the melting point fell in the range of 130 to 131 °C. Next, `Nc1ccc(Cl)cc1C(O)c1ccccc1OCc1ccccc1` (centres undefined): 120 to 121 °C; `O=C(N[C@@H](Cc1ccccc1)C(=O)N[C@H](CO)Cc1c[nH]c2ccccc12)OCc1ccccc1`: 154 to 156 °C. For `Cc1c(C(F)(F)F)nn(C(C)C)c1O`, the melting point fell in the range of 150 to 153 °C.

On to `O=c1nc(-c2ccc(Cl)s2)cc(C(F)(F)F)[nH]1`, for which the melting point amounted to 191 °C.

With `CC(C)Cc1nc2sc3c(NCCN4CCOCC4)ncnc3c2c2c1CCC(C)(C)C2`, the melting point was 190 °C. For the compound `CCOC(=O)Cc1c(CCc2ccc(OC)cc2)oc2ccc(C#N)cc12`, the melting point lay within 85 to 86 °C. Compound `N#Cc1cc2[nH]cc(C(=O)O)c2cc1-c1ccc(C2(CO)CC2)cc1` came in with a melting point of 271 to 272 °C. The compound `O=C1c2ccccc2C(OCC2CO2)N1c1cccc(Cl)c1` (centres undefined) had a melting point of 170 °C. In the case of `c1ccc(-c2cc(-n3ccc4ccccc43)c3ccccc3n2)cc1`, the melting point lay in the range of 100 to 102 °C.

`CCOCCNCCOc1ccc(NC(=O)c2ccccc2NS(C)(=O)=O)cc1` yielded a melting point of 171 to 172 °C. Next, `CC(C)(C)c1ccc(C(=O)CCCCCC2CCCCC2)cc1NC(=O)CC1c2ccccc2Oc2ccccc21`: 134 °C; `COCC(=S)Nc1c(Cl)c(Cl)cc2nc(OC)c(OC)nc12`: 198 to 200 °C; `CC1CCCN(c2cncc(C(=O)Nc3nnn[nH]3)n2)C1` (centres undefined): 236 to 238 °C.

Consider `COc1ccc2c(c1)CCN2c1cccc(C#N)c1`, for which the melting point fell in the range of 92.5 to 93.5 °C. For `N#CCn1nnc2cc3c(cc2c1=O)OC1CCCN1C3=O` (centres undefined) the value was 210 to 212 °C; for `CS(=O)CCC1=NS(=O)(=O)NC(N)=N1` (centres undefined), 180 to 182 °C. Compound `Cc1ccc(S(=O)(=O)Nc2nc(C)c(C(=O)NCc3ccccc3)s2)cc1` came in with a melting point of 242 to 245 °C. `CCCCCCCCCCCCCCOc1ccc(NC(=O)Nc2cccc(CO)c2)cc1` came in with a melting point of 150 to 158 °C. `COc1cccc(-c2cn(N=Cc3ccccc3)c(N)n2)c1` showed a melting point of 170 to 171 °C. On to `CNC(C)CCC1(C(N)=O)c2ccccc2-c2ccccc21` (centres undefined), for which the melting point lay in the range of 178 to 180 °C. `Cc1nc(Cl)c(C#N)nc1C` came in with a melting point of 83 to 85 °C. For `CCC(=O)Nc1ccccc1C(=O)O`, the melting point came out at 120 °C. With `O=C(Nc1ccccn1)[C@H](Cc1ccccc1)C[C@@H](Cc1ccccc1)C(=O)N[C@@H](CSCc1ccccc1)C(=O)O`, the melting point was in the range of 75 to 80 °C. The compound `C=Cc1ccc(C(=O)NC(C#N)n2cccn2)cc1` (centres undefined) yielded a melting point of 159 to 161 °C. Regarding `O=C(c1ccc2c(c1)[C@@H](O)[C@H](Br)CCO2)c1ccccc1C(F)(F)F` (relative stereo), the melting point lay in the range of 176 to 179 °C. Take `Cc1cc(C)c(C(=O)c2ccc(Cl)cc2)c(Cl)c1`: the melting point fell in the range of 41 to 52 °C. On to `CCCCCCCCCCCCCCCCCNC(=O)OC1CCCOC1COCC(O)CCCCCCO` (centres undefined), for which the melting point lay in the range of 67 to 68 °C. `C#CC1(O)C=CC2C3CCC4=CC(=O)CC(OC(C)=O)C4C3CCC21CC` (centres undefined) registered a melting point of 123 to 126 °C. In turn, `CC(C)(C)C(=O)OC1=CC(=O)C(=O)c2ccccc21` had a melting point of 125 to 126 °C. As to `CCCOc1ccc2c(c1)C(=O)CCO2`, the melting point was 50 to 52 °C. For `O=C1Nc2ccc(F)cc2C1c1ncnc2nn(C3CCCC3)cc12` (centres undefined) the value was 256 to 260 °C; for `CCCCCCCCCc1ccc(S(N)(=O)=O)cc1`, 94.5 to 95.2 °C.

The compound `CC(C)NCC(O)COc1cccc(C2=NNC(=O)CC2)c1` (centres undefined) gave a melting point of 137 to 141 °C. Compound `CC(C)(C)OC(=O)N1CCc2c(n(CCCc3ccccc3)c3ccc(Cl)c(Cl)c23)CC1` had a melting point of 114 to 116 °C. As to `COC(=O)C1(C(N)=O)OC1c1ccccc1` (centres undefined), the melting point was in the range of 175 to 177 °C. Take `OCCC1(S)C2CC3CC(C2)CC1C3` (centres undefined): the melting point fell in the range of 68 to 70 °C. Regarding `Cc1cc(C)n(CC(C)C)c(=O)c1C(=O)O`, the melting point is 93 to 95 °C.
